Assay [1] addresses biotinylated human IL-17A / AF647-labeled human IL-17RA (Homo sapiens, UniProt Q16552). Description: Human IL-17A×IL-17RA TR-FRET assay. Format: binding. In outline:
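Compounds tested in duplicate at each concentration; neutral controls contain all components with DMSO in place of compound.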
For orientation: Time-resolved FRET reads energy transfer from a long-lived donor to a nearby acceptor.

Assay [2] deals with recombinant human IL-17AA (Homo sapiens, UniProt Q16552). Description: IL-6 release from NHDF cells, IL-17AA plus TNF-α stimulation. Format: cell-based. To be noted: 24 hours, IL-6 by ELISA. In outline:
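ELISA measured IL-6 in supernatants after 24 h at 37° C of NHDF cells with a compound/cytokine cocktail, pre-mixed 30 min at room temperature. Duplicates; 0.1% DMSO or 20% plasma final. IC50 from IL-6 remaining after subtracting the TNF-α-alone signal.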
For orientation: In an ELISA, binding on a coated surface is turned into a signal by an enzyme label.

[3] abbreviates: TR-FRET, 5 nM IL-17A, 30 nM IL-17RA, read-out: IL17AA FRET/ IL17Rawt IC50.
The mark [4] stands for this setting: NHDF cells, IL-17AA 30 pM + TNF-α 6 pM, read-out: IL17AA + TNF IC50 IL-6.
[5] abbreviates: TR-FRET, biotinylated human IL-17A 5 nM, AF647-labeled human IL-17RA 30 nM, read-out: IL17AA FRET/ IL17Rawt IC50.
Setting [6] is: NHDF cells, IL-17AA 30 pM plus TNF-α 6 pM, read-out: IL17AA + TNF IC50 IL-6.

pIC50: −log10 of the molar value. Where two headings read alike, the source gives them in different places. Bounds are passed on as bounds.

recombinant human IL-17AA, sequence (Q16552 24-155): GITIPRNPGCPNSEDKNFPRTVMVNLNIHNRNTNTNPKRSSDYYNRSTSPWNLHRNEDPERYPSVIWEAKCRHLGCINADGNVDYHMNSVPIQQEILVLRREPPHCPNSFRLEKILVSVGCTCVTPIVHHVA
biotinylated human IL-17A / AF647-labeled human IL-17RA, sequence (Q16552 24-155): as above

For the molecule `Cc1cc[n+]([O-])c(C)c1-c1ccc(NC(=O)[C@@H](NC(=O)c2ccc3n2CCNC3)C2CCC(F)CC2)cc1` (stereo partly drawn) [Example 200, 3-(4-((2S)-2-(4-fluorocyclohexyl)-2-(1,2,3,4-tetrahydropyrrolo[1,2-a]pyrazine-6-carboxamido)acetamido)phenyl)-2,4-dimethylpyridine 1-oxide], the pIC50 was 6.61 in assay [1] (setting [3]) and 6.38 in assay [2] (setting [4]).

Regarding `Cc1c(-c2ccc(NC(=O)C(NC(=O)c3ccnn3C)C3CCC(C)CC3)cc2F)c(Cl)cc[n+]1[O-]` [Example 56, 4-chloro-3-(2-fluoro-4-((S)-2-(1-methyl-1H-pyrazole-5-carboxamido)-2-((1r,4S)-4-methylcyclohexyl)acetamido)phenyl)-2-methylpyridine 1-oxide], the pIC50 in assay [1] (IL17AA FRET/ IL17Rawt IC50, TR-FRET, biotinylated human IL-17A 5 nM, AF647-labeled human IL-17RA 30 nM) is 7.68; in assay [2] (IL17AA + TNF IC50 IL-6, NHDF cells, IL-17AA 30 pM plus TNF-α 6 pM) it was 8.40.

Regarding `Cc1cc[n+]([O-])c(C)c1-c1ccc(NC(=O)C(NC(=O)c2ccnn2C(C)C)C2CCCC(F)(F)C2)cc1` (centres unmarked) [Example 161, 3-(4-(2-(3,3-difluorocyclohexyl)-2-(1-isopropyl-1H-pyrazole-5-carboxamido)acetamido)phenyl)-2,4-dimethylpyridine 1-oxide], the pIC50 in assay [1] (setting [3]) is 6.89; in assay [2] (setting [4]), 7.69.

With `CCn1nccc1C(=O)NC(C(=O)Nc1ccc(-c2c(Cl)cc[n+]([O-])c2C)cc1)C1CC2CC2C1` (single isomer, unassigned) [Example 145], the pIC50 is 7.62 in assay [1] (setting [3]) and 7.63 in assay [2] (setting [4]).

Turning to `Cc1c(-c2ccc(NC(=O)C(NC(=O)c3ccc4n3CCNC4)C3CCCc4ccccc43)cc2F)c(Cl)cc[n+]1[O-]` [Example 186, 4-chloro-3-(2-fluoro-4-((S)-2-((S)-1,2,3,4-tetrahydronaphtha]en-1-yl)-2-(1,2,3,4-tetrahydropyrrolo[1,2-a]pyrazine-6-carboxamido)acetamido)phenyl)-2-methylpyridine 1-oxide], the pIC50 in assay [1] (setting [3]) was 7.09; in assay [2] (setting [4]), 7.47.

For the molecule `Cc1nocc1C(=O)N[C@H](C(=O)Nc1ccc(-c2c(Cl)cc[n+]([O-])c2C)c(F)c1)C1CCC(F)(F)CC1` [Example 106, 4-chloro-3-(4-((S)-2-(4,4-difluorocyclohexyl)-2-(3-methylisoxazole-4-carboxamido)acetamido)-2-fluorophenyl)-2-methylpyridine 1-oxide], the results for the pIC50 in assay [1] (setting [5]) and in assay [2] (setting [6]) were 7.30 and 7.74, respectively.

Take `Cc1c(-c2ccc(NC(=O)C(NC(=O)c3ccnn3C)C3CC4CC4C3)cc2)c(Cl)cc[n+]1[O-]` (centres unmarked) [Example 218, 3-(4-(2-(bicyclo[3.1.0]hexan-3-yl)-2-(1-methyl-1H-pyrazole-5-carboxamido)acetamido)phenyl)-4-chloro-2-methylpyridine 1-oxide]: the pIC50 in assay [1] (setting [3]) was 7.17; in assay [2] (setting [4]), 7.71.

`Cc1cc[n+]([O-])c(C)c1-c1ccc(NC(=O)[C@@H](NC(=O)c2ccnn2C)C2CCCCC2)cc1F` [Example 95, 3-(4-((S)-2-cyclohexyl-2-(1-methyl-1H-pyrazole-5-carboxamido)acetamido)-2-fluorophenyl)-2,4-dimethylpyridine 1-oxide]: the pIC50 is 6.90 in assay [1] (setting [5]) and 7.72 in assay [2] (setting [6]).

Turning to `Cc1c[n+]([O-])cc(C)c1-c1ccc(NC(=O)[C@@H](NC(=O)c2ccnn2C2CC2)C2CCCCCC2)cc1` [Example 100, (S)-4-(4-(2-cycloheptyl-2-(1-cyclopropyl-1H-pyrazole-5-carboxamido)acetamido)phenyl)-3,5-dimethylpyridine 1-oxide], the pIC50 was 6.61 in assay [1] (setting [5]) and 7.34 in assay [2] (setting [6]).

As to `Cc1c(-c2ccc(NC(=O)[C@@H](NC(=O)c3ccnn3C(C)C)C3CCCCC3)cc2F)ccc[n+]1[O-]` [Example 82, (S)-3-(4-(2-cyclohexyl-2-(1-isopropyl-1H-pyrazole-5-carboxamido)acetamido)-2-fluorophenyl)-2-methylpyridine 1-oxide], the pIC50 in assay [1] (setting [5]) is 7.07; in assay [2] (setting [6]), 7.46.

On to `CC(=O)N1CCn2c(ccc2C(=O)N[C@H](C(=O)Nc2ccc(-c3c(Cl)cc[n+]([O-])c3C)cc2)C2CCCCC2)C1` [Example 199, (S)-3-(4-(2-(2-acetyl-1,2,3,4-tetrahydropyrrolo[1,2-a]pyrazine-6-carboxamido)-2-cyclohexylacetamido)phenyl)-4-chloro-2-methylpyridine 1-oxide], for which the pIC50 in assay [1] (setting [3]) was 6.63; in assay [2] (setting [4]), 7.94.

As to `Cc1cc[n+]([O-])c(C)c1-c1ccc(NC(=O)[C@@H](NC(=O)c2ccc3n2CCNC3)C2CCCCCC2)cc1` [Example 202, (S)-3-(4-(2-cycloheptyl-2-(1,2,3,4-tetrahydropyrrolo[1,2-a]pyrazine-6-carboxamido)acetamido)phenyl)-2,4-dimethylpyridine 1-oxide], the results for the pIC50 in assay [1] (setting [3]) and in assay [2] (setting [4]) were 6.59 and 7.14, respectively.

`Cc1cc[n+]([O-])c(C)c1-c1ccc(NC(=O)[C@H](Cc2ccccc2)NC(=O)c2ccnn2C)cc1` [Example 75, (S)-2,4-dimethyl-3-(4-(2-(1-methyl-1H-pyrazole-5-carboxamido)-3-phenylpropanamido)phenyl)pyridine 1-oxide]: the pIC50 in assay [1] (setting [5]) was 5.58; in assay [2] (setting [6]) it was less than 5.00.

As to `Cc1ccnc(C)c1-c1ccc(NC(=O)[C@@H](NC(=O)c2ccnn2C)[C@@H]2CC=C(F)CC2)cc1` [compound 144, N-((S)-2-((4-(2,4-dimethylpyridin-3-yl)phenyl)amino)-1-((S)-4-fluorocyclohex-3-en-1-yl)-2-oxoethyl)-1-methyl-1H-pyrazole-5-carboxamide, reference compound], the pIC50 is 5.38 in assay [1] (TR-FRET, 5 nM IL-17A, 30 nM IL-17RA, reference examples (pyridines), read-out: IL17AA FRET/ IL17RAwt IC50) and 6.15 in assay [2] (NHDF cells, IL-17AA 30 pM + TNF-α 6 pM, reference examples (pyridines), read-out: IL 17AA + TNF IC50 IL-6).

For `COCc1nocc1C(=O)N[C@H](C(=O)Nc1ccc(-c2c(Cl)cc[n+]([O-])c2C)c(F)c1)C1CCC(F)(F)CC1` [Example 163, 4-chloro-3-(4-((S)-2-(4,4-difluorocyclohexyl)-2-(3-(methoxymethyl)isoxazole-4-carboxamido)acetamido)-2-fluorophenyl)-2-methylpyridine 1-oxide], the pIC50 in assay [1] (setting [3]) is 6.72; in assay [2] (setting [4]), 7.17.

On to `Cc1nocc1C(=O)NC(C(=O)Nc1ccc(-c2c(Cl)cc[n+]([O-])c2C)cc1)C1CC2CC2C1` (single isomer, unassigned) [Example 181], for which the pIC50 is 7.26 in assay [1] (setting [3]) and 7.19 in assay [2] (setting [4]).

As to `CC(=O)N1CCn2c(ccc2C(=O)NC(C(=O)Nc2ccc(-c3c(Cl)cc[n+]([O-])c3C)c(F)c2)[C@H]2C[C@@H]3C[C@@H]3C2)C1` (stereo partly drawn) [Example 194, 3-(4-(2-(2-acetyl-1,2,3,4-tetrahydropyrrolo[1,2-a]pyrazine-6-carboxamido)-2-((1R,3s,5S)-bicyclo[3.1.0]hexan-3-yl)acetamido)-2-fluorophenyl)-4-chloro-2-methylpyridine 1-oxide], the pIC50 in assay [1] (setting [3]) was 6.78; in assay [2] (setting [4]), 7.33.

As to `Cc1cc[n+]([O-])c(C)c1-c1ccc(NC(=O)[C@@H](NC(=O)c2ccnn2C(C)C)C2CCCCC2)cc1F` [Example 96, 3-(4-((S)-2-cyclohexyl-2-(1-isopropyl-1H-pyrazole-5-carboxamido)acetamido)-2-fluorophenyl)-2,4-dimethylpyridine 1-oxide], the values for the pIC50 in assay [1] (setting [5]) and in assay [2] (setting [6]) were 7.15 and 8.15, respectively.

As to `Cc1cc[n+]([O-])c(C)c1-c1ccc(NC(=O)[C@H](Cc2ccccc2F)NC(=O)c2ccnn2C)cc1` [Example 217, (S)-3-(4-(3-(2-fluorophenyl)-2-(1-methyl-1H-pyrazole-5-carboxamido)propanamido)phenyl)-2,4-dimethylpyridine 1-oxide], the pIC50 in assay [1] (setting [3]) was 5.96; in assay [2] (setting [4]), 5.53.

In the case of `Cc1cc[n+]([O-])c(C)c1-c1ccc(NC(=O)[C@@H](NC(=O)c2ccnn2C)C2CCC(F)(F)C2)cc1` (stereo partly drawn) [Example 87, 3-(4-((2S)-2-(3,3-difluorocyclopentyl)-2-(1-methyl-1H-pyrazole-5-carboxamido)acetamido)phenyl)-2,4-dimethylpyridine 1-oxide], the figures for the pIC50 in assay [1] (setting [5]) and in assay [2] (setting [6]) were 6.31 and 6.30, respectively.

Consider `Cc1cc[n+]([O-])c(C)c1-c1ccc(NC(=O)[C@@H](NC(=O)c2ccnn2C2CC2)C2CCCCC2)cc1` [Example 94, (S)-3-(4-(2-cyclohexyl-2-(1-cyclopropyl-1H-pyrazole-5-carboxamido)acetamido)phenyl)-2,4-dimethylpyridine 1-oxide], for which the pIC50 was 6.89 in assay [1] (setting [5]) and 7.33 in assay [2] (setting [6]).

Consider `Cc1cc[n+]([O-])c(C)c1-c1ccc(NC(=O)[C@@H](NC(=O)c2ccnn2C)C2CCCCC2)cc1` [Example 39, (S)-3-(4-(2-cyclohexyl-2-(1-methyl-1H-pyrazole-5-carboxamido)acetamido)phenyl)-2,4-dimethylpyridine 1-oxide], for which the pIC50 is 6.72 in assay [1] (setting [5]) and 7.70 in assay [2] (setting [6]).

(Values after patent US12600728B2, “Interleukin-17 inhibitors” (priority 2020, dated 2026).)
